Measured values: ChEMBL document CHEMBL2073748, “Na(+)-dependent carnitine transport by organic cation transporter (OCTN2): its pharmacological and toxicological relevance” (J Pharmacol Exp Ther, 1999)

What was measured:
Assay type in all cases: functional, cell-based
[1] = molecular target: T1, Organic cation/carnitine transporter 2 (Homo sapiens, UniProt O76082); test: TP_TRANSPORTER: inhibition of Carnitine uptake (Carnitine: 0.010? uM, alphaKG: 500 uM) in OCTN2-expressing HEK293 cells; settings: hek293, 500 µM
T1 sequence (O76082 whole entry): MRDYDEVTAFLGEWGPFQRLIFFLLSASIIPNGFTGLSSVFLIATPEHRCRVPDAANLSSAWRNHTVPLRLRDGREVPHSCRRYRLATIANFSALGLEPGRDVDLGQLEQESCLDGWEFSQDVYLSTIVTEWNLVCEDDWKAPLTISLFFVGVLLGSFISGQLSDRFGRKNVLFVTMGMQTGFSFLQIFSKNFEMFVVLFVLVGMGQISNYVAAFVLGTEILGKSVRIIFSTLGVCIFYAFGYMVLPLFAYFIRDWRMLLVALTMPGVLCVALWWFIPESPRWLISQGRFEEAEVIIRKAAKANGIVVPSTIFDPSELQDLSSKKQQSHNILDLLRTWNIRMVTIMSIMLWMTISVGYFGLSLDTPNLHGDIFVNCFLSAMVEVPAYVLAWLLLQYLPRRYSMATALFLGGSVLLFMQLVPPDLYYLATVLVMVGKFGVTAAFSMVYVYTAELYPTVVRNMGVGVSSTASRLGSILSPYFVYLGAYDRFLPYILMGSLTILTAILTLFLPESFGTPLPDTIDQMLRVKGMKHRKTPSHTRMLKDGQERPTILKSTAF

[2] = molecular target: T1, Organic cation/carnitine transporter 2; test: TP_TRANSPORTER: uptake in OCTN2-expressing HEK293 cells
[3] = molecular target: T1, Organic cation/carnitine transporter 2; test: TP_TRANSPORTER: inhibition of Carnitine uptake (Carnitine: 0.010? uM, PAH: 500 uM) in OCTN2-expressing HEK293 cells; settings: hek293, 500 µM
[4] = molecular target: T1, Organic cation/carnitine transporter 2; test: TP_TRANSPORTER: inhibition of Carnitine uptake (Carnitine: 0.010? uM, NMN: 500 uM) in OCTN2-expressing HEK293 cells; settings: hek293, 500 µM
[5] = molecular target: T1, Organic cation/carnitine transporter 2; test: TP_TRANSPORTER: inhibition of Carnitine uptake (Carnitine: 0.010? uM, Norfloxacin: 500 uM) in OCTN2-expressing HEK293 cells; settings: hek293, 500 µM
[6] = molecular target: T1, Organic cation/carnitine transporter 2; test: TP_TRANSPORTER: inhibition of Carnitine uptake (Carnitine: 0.010? uM, Pivalate: 500 uM) in OCTN2-expressing HEK293 cells; settings: hek293, 500 µM
[7] = molecular target: T1, Organic cation/carnitine transporter 2; test: TP_TRANSPORTER: inhibition of Carnitine uptake (Carnitine: 0.010? uM, SPLX: 500 uM) in OCTN2-expressing HEK293 cells; settings: hek293, 500 µM

## O=C(O)CCC(=O)C(=O)O [ALPHA-KETOGLUTARIC ACID]
[1]
  Activity: is not an inhibitor [-]

## Nc1ccc(C(=O)NCC(=O)O)cc1 [AMINOHIPPURIC ACID]
[2]
  Activity: is not a substrate [-]
[3]
  Activity: is not an inhibitor [-]

## CNC(=O)c1cccnc1 [NICOTINYL METHYLAMIDE]
[4]
  Activity: is not an inhibitor [-]

## CCn1cc(C(=O)O)c(=O)c2cc(F)c(N3CCNCC3)cc21 [NORFLOXACIN]
[5]
  Activity: is not an inhibitor [-]

## CC(C)(C)C(=O)O [PIVALATE]
[6]
  Activity: is not an inhibitor [-]

## C[C@@H]1CN(c2c(F)c(N)c3c(=O)c(C(=O)O)cn(C4CC4)c3c2F)C[C@H](C)N1 [SPARFLOXACIN]
[7]
  Activity: is not an inhibitor [-]
